Data reported in the NIST ThermoML archive (doi:10.1021/acs.jced.7b01053).

Assay: mn = molality of the nth substance listed, in mol/kg
Details: 293 K, 100 kPa, Liquid, Alternating current cell with electrodes

CCC(=O)[O-].OCC[NH2+]CCO [bis(2-hydroxyethyl)ammonium propanoate] + O
Details | electrical conductivity [S/m]
m1 = 0.01926 | 0.109
m1 = 0.01974 | 0.104
m1 = 0.03749 | 0.196
m1 = 0.0377 | 0.192
m1 = 0.05722 | 0.296
m1 = 0.05727 | 0.296
m1 = 0.07596 | 0.375
m1 = 0.0761 | 0.365
m1 = 0.0957 | 0.456
m1 = 0.09617 | 0.447
m1 = 0.1142 | 0.528
m1 = 0.1152 | 0.519
m1 = 0.1335 | 0.601
m1 = 0.135 | 0.596
m1 = 0.1519 | 0.67
m1 = 0.1542 | 0.668
m1 = 0.1707 | 0.737
m1 = 0.1718 | 0.725
m1 = 0.1845 | 0.785
m1 = 0.1898 | 0.798
m1 = 0.2029 | 0.849
m1 = 0.2071 | 0.875
m1 = 0.22 | 0.901
m1 = 0.2243 | 0.942
m1 = 0.2375 | 0.955
m1 = 0.2406 | 0.997
m1 = 0.2535 | 1
m1 = 0.2571 | 1.03
m1 = 0.2696 | 1.05
m1 = 0.2722 | 1.08
m1 = 0.285 | 1.09
m1 = 0.2875 | 1.12
m1 = 0.3002 | 1.13
m1 = 0.3019 | 1.17
m1 = 0.3142 | 1.17
m1 = 0.3162 | 1.16
m1 = 0.3282 | 1.21
m1 = 0.3293 | 1.23
m1 = 0.3413 | 1.24
m1 = 0.3424 | 1.27
m1 = 0.3538 | 1.27
m1 = 0.3545 | 1.31
m1 = 0.3658 | 1.3
m1 = 0.366 | 1.35
m1 = 0.3774 | 1.39
m1 = 0.3775 | 1.32
m1 = 0.3881 | 1.41
m1 = 0.3884 | 1.36
m1 = 0.3986 | 1.44
m1 = 0.3992 | 1.39
m1 = 0.4083 | 1.47
m1 = 0.4092 | 1.41
m1 = 0.418 | 1.5
m1 = 0.419 | 1.44
m1 = 0.4271 | 1.53
m1 = 0.4283 | 1.46
m1 = 0.4361 | 1.55
m1 = 0.4372 | 1.49
m1 = 0.4445 | 1.57
m1 = 0.4457 | 1.51
m1 = 0.4527 | 1.6
m1 = 0.4539 | 1.53
m1 = 0.4617 | 1.56
m1 = 0.4692 | 1.58
m1 = 0.4759 | 1.59

CCCC(=O)O.OCCNCCO [diethanolamine butyrate] + O
Details | electrical conductivity [S/m]
m1 = 0.01798 | 0.077
m1 = 0.01805 | 0.09
m1 = 0.03516 | 0.166
m1 = 0.03577 | 0.142
m1 = 0.05397 | 0.257
m1 = 0.05531 | 0.207
m1 = 0.0709 | 0.318
m1 = 0.07433 | 0.284
m1 = 0.09407 | 0.346
m1 = 0.09424 | 0.389
m1 = 0.1085 | 0.453
m1 = 0.1122 | 0.403
m1 = 0.1275 | 0.519
m1 = 0.1316 | 0.486
m1 = 0.1455 | 0.581
m1 = 0.1496 | 0.538
m1 = 0.1638 | 0.641
m1 = 0.1683 | 0.577
m1 = 0.1807 | 0.696
m1 = 0.186 | 0.597
m1 = 0.1982 | 0.75
m1 = 0.2035 | 0.651
m1 = 0.2144 | 0.801
m1 = 0.2203 | 0.694
m1 = 0.231 | 0.87
m1 = 0.237 | 0.725
m1 = 0.2464 | 0.912
m1 = 0.2525 | 0.764
m1 = 0.2616 | 0.954
m1 = 0.2679 | 0.782
m1 = 0.2758 | 0.994
m1 = 0.2824 | 0.821
m1 = 0.2899 | 1.03
m1 = 0.297 | 0.862
m1 = 0.3032 | 1.06
m1 = 0.3106 | 0.908
m1 = 0.3162 | 1.1
m1 = 0.324 | 0.95
m1 = 0.3283 | 1.13
m1 = 0.3321 | 0.98
m1 = 0.3402 | 1.16
m1 = 0.3438 | 1
m1 = 0.3514 | 1.19
m1 = 0.3555 | 1.02
m1 = 0.3623 | 1.22
m1 = 0.3665 | 1.05
m1 = 0.3726 | 1.24
m1 = 0.3774 | 1.05
m1 = 0.3826 | 1.27
m1 = 0.3875 | 1.07
m1 = 0.3917 | 1.29
m1 = 0.3975 | 1.1
m1 = 0.4022 | 1.32
m1 = 0.4068 | 1.12
m1 = 0.4115 | 1.35
m1 = 0.416 | 1.14
m1 = 0.4201 | 1.38
m1 = 0.4245 | 1.16
m1 = 0.4284 | 1.4
m1 = 0.433 | 1.18
m1 = 0.4368 | 1.43
m1 = 0.4446 | 1.45

CCCCC(=O)O.OCCNCCO [diethanolamine pentanoate] + O
Details | electrical conductivity [S/m]
m1 = 0.01462 | 0.055
m1 = 0.01705 | 0.064
m1 = 0.03093 | 0.108
m1 = 0.03218 | 0.116
m1 = 0.04874 | 0.161
m1 = 0.0491 | 0.168
m1 = 0.06476 | 0.204
m1 = 0.06559 | 0.215
m1 = 0.08109 | 0.279
m1 = 0.08267 | 0.268
m1 = 0.09793 | 0.328
m1 = 0.09939 | 0.312
m1 = 0.1159 | 0.375
m1 = 0.117 | 0.365
m1 = 0.1326 | 0.42
m1 = 0.133 | 0.408
m1 = 0.1488 | 0.449
m1 = 0.1507 | 0.47
m1 = 0.163 | 0.486
m1 = 0.1668 | 0.512
m1 = 0.1779 | 0.524
m1 = 0.1838 | 0.557
m1 = 0.1916 | 0.526
m1 = 0.1994 | 0.595
m1 = 0.2058 | 0.558
m1 = 0.2152 | 0.634
m1 = 0.2197 | 0.593
m1 = 0.2297 | 0.669
m1 = 0.2336 | 0.624
m1 = 0.2447 | 0.706
m1 = 0.2467 | 0.655
m1 = 0.2584 | 0.739
m1 = 0.26 | 0.685
m1 = 0.2721 | 0.767
m1 = 0.2723 | 0.711
m1 = 0.2848 | 0.739
m1 = 0.2851 | 0.795
m1 = 0.2965 | 0.755
m1 = 0.2976 | 0.822
m1 = 0.3079 | 0.789
m1 = 0.3096 | 0.848
m1 = 0.3188 | 0.811
m1 = 0.3214 | 0.874
m1 = 0.3321 | 0.896
m1 = 0.3396 | 0.835
m1 = 0.3428 | 0.918
m1 = 0.3494 | 0.854
m1 = 0.3527 | 0.94
m1 = 0.3585 | 0.876
m1 = 0.3625 | 0.96
m1 = 0.3675 | 0.893
m1 = 0.3716 | 0.979
m1 = 0.376 | 0.914
m1 = 0.3806 | 0.999
m1 = 0.3844 | 0.925
m1 = 0.389 | 1.01
m1 = 0.3921 | 0.925
m1 = 0.3973 | 1.03
m1 = 0.3997 | 0.925
m1 = 0.4069 | 0.973
m1 = 0.4446 | 0.991
